The values below are quoted from earlier work in patent US20080096857A1, “Photodynamic Therapy For The Treatment Of Hyperactive Sebaceous Gland Disorders Using Topically Applied Hydrophobic Green Porphyrins” (QLT Inc., priority 2004, published 2008).

SMILES strings stand for the structures.

The subject of this series is acne vulgaris. The settings on record: topical ALA-PDT of acne vulgaris; J. Invest Dermatol 115:183-192, 2000.

As for `NCC(=O)CCC(=O)O` [ALA, 5-aminolevulinic acid], the “adverse events during and after the treatment” value is “serious adverse events that occurred during and after the treatment including erythema, edema, and sensations of pain, burning and itching”.
